Experimental data published in ChEMBL document CHEMBL3217539, “Design, synthesis and biological evaluation of new molecules inhibiting epidermal growth factor receptor threonine790 methionine790 mutant” (Medchemcomm, 2012).
Active and inactive are the calls of the source. The rule behind the calls is not given here.

Target: Epidermal growth factor receptor (Homo sapiens, UniProt P00533)
Sequence (P00533 whole entry): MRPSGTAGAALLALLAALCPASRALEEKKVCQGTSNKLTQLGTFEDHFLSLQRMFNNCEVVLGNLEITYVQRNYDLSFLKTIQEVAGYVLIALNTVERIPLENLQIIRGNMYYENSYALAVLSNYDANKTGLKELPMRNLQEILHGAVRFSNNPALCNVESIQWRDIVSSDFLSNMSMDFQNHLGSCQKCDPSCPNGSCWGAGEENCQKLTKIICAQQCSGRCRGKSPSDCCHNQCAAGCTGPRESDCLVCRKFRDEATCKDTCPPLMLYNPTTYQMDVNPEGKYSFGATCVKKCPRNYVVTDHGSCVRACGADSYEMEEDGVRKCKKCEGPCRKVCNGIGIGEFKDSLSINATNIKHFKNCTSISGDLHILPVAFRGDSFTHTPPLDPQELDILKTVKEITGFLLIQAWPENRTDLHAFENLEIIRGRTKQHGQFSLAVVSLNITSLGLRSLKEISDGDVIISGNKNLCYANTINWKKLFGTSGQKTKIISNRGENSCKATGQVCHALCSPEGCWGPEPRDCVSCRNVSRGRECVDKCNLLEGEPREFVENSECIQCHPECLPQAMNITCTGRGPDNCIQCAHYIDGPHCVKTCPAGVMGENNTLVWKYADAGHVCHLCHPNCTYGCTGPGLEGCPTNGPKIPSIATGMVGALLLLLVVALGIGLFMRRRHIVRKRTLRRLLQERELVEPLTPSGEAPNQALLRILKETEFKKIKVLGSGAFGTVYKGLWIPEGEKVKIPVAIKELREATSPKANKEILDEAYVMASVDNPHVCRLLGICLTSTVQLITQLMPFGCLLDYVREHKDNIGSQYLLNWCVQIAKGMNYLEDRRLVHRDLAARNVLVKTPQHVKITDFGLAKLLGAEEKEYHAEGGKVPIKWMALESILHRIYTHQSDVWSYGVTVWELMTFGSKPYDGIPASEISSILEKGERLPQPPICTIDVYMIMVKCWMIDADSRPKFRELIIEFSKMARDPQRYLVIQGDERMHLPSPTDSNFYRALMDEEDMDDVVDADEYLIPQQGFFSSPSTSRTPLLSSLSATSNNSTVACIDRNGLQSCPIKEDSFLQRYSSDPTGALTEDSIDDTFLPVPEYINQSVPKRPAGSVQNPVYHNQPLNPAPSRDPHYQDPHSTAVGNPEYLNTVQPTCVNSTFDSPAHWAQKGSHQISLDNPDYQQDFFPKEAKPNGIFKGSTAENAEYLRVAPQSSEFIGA
Assay: Inhibition of wild type EGFR kinase (unknown origin) after 1.5 hrs by FRET-based Z'-Lyte assay
Conditions: not given
`C=CC(=O)Nc1cccc(N2C(=O)C(Cc3ccc(OC)cc3)N(C)C(=O)c3cnc(Nc4ccc(N5CCN(C)CC5)cc4OC)nc32)c1` (centres undefined) gave an IC50 of 33.9 nM.
Compound `C=CC(=O)Nc1cccc(N2C(=O)CN(C)C(=O)c3cnc(Nc4ccc(N5CCN(C)CC5)cc4OC)nc32)c1` has an IC50 of 9.14 nM.
`C=CC(=O)Nc1cccc(N2C(=O)C(Cc3ccc(F)cc3)N(C)C(=O)c3cnc(Nc4ccc(N5CCN(C)CC5)cc4OC)nc32)c1` (centres undefined) gave an IC50 of 5.78 nM.
For `C=CC(=O)Nc1cccc(N2C(=O)C(C(C)CC)N(C)C(=O)c3cnc(Nc4ccc(N5CCN(C)CC5)cc4OC)nc32)c1` (centres undefined), the IC50 was 10.2 nM.
Compound `C=CC(=O)Nc1cccc(N2C(=O)C(Cc3ccccc3)N(C)C(=O)c3cnc(Nc4ccc(N5CCN(C)CC5)cc4OC)nc32)c1` (centres undefined) has an IC50 of 4.68 nM.

System: Epidermal growth factor receptor (Homo sapiens), P00533 [L858R,T790M]
Sequence (P00533 whole entry T790M/L858R, looked up): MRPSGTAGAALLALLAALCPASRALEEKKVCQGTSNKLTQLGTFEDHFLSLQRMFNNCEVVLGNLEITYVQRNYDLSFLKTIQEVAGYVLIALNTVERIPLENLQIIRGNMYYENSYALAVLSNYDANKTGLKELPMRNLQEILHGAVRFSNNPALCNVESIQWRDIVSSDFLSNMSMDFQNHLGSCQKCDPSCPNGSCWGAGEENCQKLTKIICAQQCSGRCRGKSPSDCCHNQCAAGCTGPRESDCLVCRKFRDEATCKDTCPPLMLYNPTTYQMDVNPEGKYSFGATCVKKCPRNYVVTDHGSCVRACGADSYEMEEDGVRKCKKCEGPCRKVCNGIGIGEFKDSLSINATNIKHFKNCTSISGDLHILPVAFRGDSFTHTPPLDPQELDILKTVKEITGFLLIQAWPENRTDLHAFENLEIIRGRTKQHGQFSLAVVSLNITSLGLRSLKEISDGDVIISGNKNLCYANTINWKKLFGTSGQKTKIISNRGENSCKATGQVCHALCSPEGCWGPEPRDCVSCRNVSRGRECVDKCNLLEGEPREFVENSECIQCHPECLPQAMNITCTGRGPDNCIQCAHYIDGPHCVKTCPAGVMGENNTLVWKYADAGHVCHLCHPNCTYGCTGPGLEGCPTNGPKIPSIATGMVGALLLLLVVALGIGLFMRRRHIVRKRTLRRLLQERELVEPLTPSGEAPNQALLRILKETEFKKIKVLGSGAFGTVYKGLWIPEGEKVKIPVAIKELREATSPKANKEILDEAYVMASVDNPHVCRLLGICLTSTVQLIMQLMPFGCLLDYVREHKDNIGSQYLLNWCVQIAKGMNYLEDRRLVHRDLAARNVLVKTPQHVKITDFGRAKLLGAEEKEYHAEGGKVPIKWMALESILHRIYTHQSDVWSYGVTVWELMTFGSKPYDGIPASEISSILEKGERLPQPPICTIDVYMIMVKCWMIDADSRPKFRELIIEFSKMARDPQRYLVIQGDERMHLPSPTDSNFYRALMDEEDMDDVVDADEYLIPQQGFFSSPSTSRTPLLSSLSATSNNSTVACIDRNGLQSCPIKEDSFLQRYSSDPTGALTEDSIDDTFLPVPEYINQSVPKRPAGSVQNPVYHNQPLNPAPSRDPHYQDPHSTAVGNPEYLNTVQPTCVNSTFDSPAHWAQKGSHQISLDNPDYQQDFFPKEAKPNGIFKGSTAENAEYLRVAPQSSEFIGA
Assay: Inhibition of EGFR kinase L858R/T790M double mutant phosphorylation in human H1975 cells after 24 hrs by Western blotting analysis
Format: cell-based
Conditions: not given
With `C=CC(=O)Nc1cccc(N2C(=O)C(Cc3ccc(F)cc3)N(C)C(=O)c3cnc(Nc4ccc(N5CCN(C)CC5)cc4OC)nc32)c1` (centres undefined) the inhibition was “Dose-dependent effect”.
For `C=CC(=O)Nc1cccc(N2C(=O)C(Cc3ccccc3)N(C)C(=O)c3cnc(Nc4ccc(N5CCN(C)CC5)cc4OC)nc32)c1` (centres undefined), the inhibition was “Dose-dependent effect”.

System: Epidermal growth factor receptor (Homo sapiens), P00533 [L858R,T790M]
Assay: Inhibition of EGFR kinase L858R/T790M double mutant phosphorylation in human H1975 cells at >= 50 nM after 24 hrs by Western blotting analysis
Format: cell-based
Conditions: not given
With `C=CC(=O)Nc1cccc(N2C(=O)C(Cc3ccc(F)cc3)N(C)C(=O)c3cnc(Nc4ccc(N5CCN(C)CC5)cc4OC)nc32)c1` (centres undefined) the inhibition was “Active”.
For `C=CC(=O)Nc1cccc(N2C(=O)C(Cc3ccccc3)N(C)C(=O)c3cnc(Nc4ccc(N5CCN(C)CC5)cc4OC)nc32)c1` (centres undefined), the inhibition was “Active”.

Target: Epidermal growth factor receptor (Homo sapiens, UniProt P00533, T790M)
Assay: Inhibition of EGFR kinase T790M mutant (unknown origin) after 1.5 hrs by FRET-based Z'-Lyte assay
Format: protein assay
Conditions: not given
`C=CC(=O)Nc1cccc(N2C(=O)C(Cc3ccc(OC)cc3)N(C)C(=O)c3cnc(Nc4ccc(N5CCN(C)CC5)cc4OC)nc32)c1` (centres undefined) gave an IC50 of 88.3 nM.
With `C=CC(=O)Nc1cccc(N2C(=O)CN(C)C(=O)c3cnc(Nc4ccc(N5CCN(C)CC5)cc4OC)nc32)c1` the IC50 was 110 nM.
Work on `C=CC(=O)Nc1cccc(N2C(=O)C(Cc3ccc(F)cc3)N(C)C(=O)c3cnc(Nc4ccc(N5CCN(C)CC5)cc4OC)nc32)c1` (centres undefined) yielded an IC50 of 17.9 nM.
`C=CC(=O)Nc1cccc(N2C(=O)C(C(C)CC)N(C)C(=O)c3cnc(Nc4ccc(N5CCN(C)CC5)cc4OC)nc32)c1` (centres undefined) gave an IC50 of 86.8 nM.
Work on `C=CC(=O)Nc1cccc(N2C(=O)C(Cc3ccccc3)N(C)C(=O)c3cnc(Nc4ccc(N5CCN(C)CC5)cc4OC)nc32)c1` (centres undefined) yielded an IC50 of 16.5 nM.

System: NCI-H1975
Assay: cells
Format: functional, cell-based
Conditions: Homo sapiens, NCI-H1975, 72 h
In the case of `C=CC(=O)Nc1cccc(Oc2nc(Nc3ccc(N4CCN(C)CC4)cc3OC)ncc2Cl)c1`, the IC50 is reported as 87 nM.
`C=CC(=O)Nc1cccc(N2C(=O)C(Cc3ccc(Cl)cc3)N(C)C(=O)c3cnc(Nc4ccc(N5CCN(C)CC5)cc4OC)nc32)c1` (centres undefined) gave an IC50 of 470 nM.
In the case of `C=CC(=O)Nc1cccc(N2C(=O)C(Cc3ccc(OC)cc3)N(C)C(=O)c3cnc(Nc4ccc(N5CCN(C)CC5)cc4OC)nc32)c1` (centres undefined), the IC50 is reported as 820 nM.
For `C=CC(=O)Nc1cccc(N2C(=O)CN(C)C(=O)c3cnc(Nc4ccc(N5CCN(C)CC5)cc4OC)nc32)c1`, the IC50 was 11700 nM.
In the case of `C=CC(=O)Nc1cccc(N2C(=O)C(Cc3ccc(F)cc3)N(C)C(=O)c3cnc(Nc4ccc(N5CCN(C)CC5)cc4OC)nc32)c1` (centres undefined), the IC50 is reported as 69 nM.
Work on `C=CC(=O)Nc1cccc(N2C(=O)C(C(C)CC)N(C)C(=O)c3cnc(Nc4ccc(N5CCN(C)CC5)cc4OC)nc32)c1` (centres undefined) yielded an IC50 of 1110 nM.
In the case of `C=CC(=O)Nc1cccc(N2C(=O)C(Cc3ccccc3)N(C)C(=O)c3cnc(Nc4ccc(N5CCN(C)CC5)cc4OC)nc32)c1` (centres undefined), the IC50 is reported as 89 nM.

System: not listed separately
Assay: Cytotoxicity against human HCC827 cells expressing EGFR kinase E746 to A750 deletion mutant after 72 hrs by MTS assay
Format: functional, cell-based
Conditions: HCC827, 72 h
In the case of `C=CC(=O)Nc1cccc(Oc2nc(Nc3ccc(N4CCN(C)CC4)cc3OC)ncc2Cl)c1`, the IC50 is reported as 24 nM.
For `C=CC(=O)Nc1cccc(N2C(=O)C(Cc3ccc(Cl)cc3)N(C)C(=O)c3cnc(Nc4ccc(N5CCN(C)CC5)cc4OC)nc32)c1` (centres undefined), the IC50 was 300 nM.
For `C=CC(=O)Nc1cccc(N2C(=O)C(Cc3ccc(OC)cc3)N(C)C(=O)c3cnc(Nc4ccc(N5CCN(C)CC5)cc4OC)nc32)c1` (centres undefined), the IC50 was 280 nM.
`C=CC(=O)Nc1cccc(N2C(=O)CN(C)C(=O)c3cnc(Nc4ccc(N5CCN(C)CC5)cc4OC)nc32)c1` showed an IC50 of 1680 nM.
Work on `C=CC(=O)Nc1cccc(N2C(=O)C(Cc3ccc(F)cc3)N(C)C(=O)c3cnc(Nc4ccc(N5CCN(C)CC5)cc4OC)nc32)c1` (centres undefined) yielded an IC50 of 71 nM.
Work on `C=CC(=O)Nc1cccc(N2C(=O)C(C(C)CC)N(C)C(=O)c3cnc(Nc4ccc(N5CCN(C)CC5)cc4OC)nc32)c1` (centres undefined) yielded an IC50 of 600 nM.
Compound `C=CC(=O)Nc1cccc(N2C(=O)C(Cc3ccccc3)N(C)C(=O)c3cnc(Nc4ccc(N5CCN(C)CC5)cc4OC)nc32)c1` (centres undefined) has an IC50 of 24 nM.

System: not listed separately
Assay: Cytotoxicity against human HL7702 cells expressing wild type EGFR after 72 hrs by MTS assay
Format: ADME, cell-based
Conditions: L02, 72 h
Compound `C=CC(=O)Nc1cccc(Oc2nc(Nc3ccc(N4CCN(C)CC4)cc3OC)ncc2Cl)c1` has an IC50 of 9150 nM.
With `C=CC(=O)Nc1cccc(N2C(=O)C(Cc3ccc(Cl)cc3)N(C)C(=O)c3cnc(Nc4ccc(N5CCN(C)CC5)cc4OC)nc32)c1` (centres undefined) the IC50 was 8730 nM.
With `C=CC(=O)Nc1cccc(N2C(=O)C(Cc3ccc(OC)cc3)N(C)C(=O)c3cnc(Nc4ccc(N5CCN(C)CC5)cc4OC)nc32)c1` (centres undefined) the IC50 was 16200 nM.
`C=CC(=O)Nc1cccc(N2C(=O)CN(C)C(=O)c3cnc(Nc4ccc(N5CCN(C)CC5)cc4OC)nc32)c1` gave an IC50 of 44500 nM.
`C=CC(=O)Nc1cccc(N2C(=O)C(Cc3ccc(F)cc3)N(C)C(=O)c3cnc(Nc4ccc(N5CCN(C)CC5)cc4OC)nc32)c1` (centres undefined) showed an IC50 of 13700 nM.
Work on `C=CC(=O)Nc1cccc(N2C(=O)C(C(C)CC)N(C)C(=O)c3cnc(Nc4ccc(N5CCN(C)CC5)cc4OC)nc32)c1` (centres undefined) yielded an IC50 of 15000 nM.
`C=CC(=O)Nc1cccc(N2C(=O)C(Cc3ccccc3)N(C)C(=O)c3cnc(Nc4ccc(N5CCN(C)CC5)cc4OC)nc32)c1` (centres undefined) showed an IC50 of 25600 nM.

Target: Epidermal growth factor receptor (Homo sapiens, UniProt P00533, L858R/T790M)
Sequence (P00533 25-1210 T790M/L858R limits assumed): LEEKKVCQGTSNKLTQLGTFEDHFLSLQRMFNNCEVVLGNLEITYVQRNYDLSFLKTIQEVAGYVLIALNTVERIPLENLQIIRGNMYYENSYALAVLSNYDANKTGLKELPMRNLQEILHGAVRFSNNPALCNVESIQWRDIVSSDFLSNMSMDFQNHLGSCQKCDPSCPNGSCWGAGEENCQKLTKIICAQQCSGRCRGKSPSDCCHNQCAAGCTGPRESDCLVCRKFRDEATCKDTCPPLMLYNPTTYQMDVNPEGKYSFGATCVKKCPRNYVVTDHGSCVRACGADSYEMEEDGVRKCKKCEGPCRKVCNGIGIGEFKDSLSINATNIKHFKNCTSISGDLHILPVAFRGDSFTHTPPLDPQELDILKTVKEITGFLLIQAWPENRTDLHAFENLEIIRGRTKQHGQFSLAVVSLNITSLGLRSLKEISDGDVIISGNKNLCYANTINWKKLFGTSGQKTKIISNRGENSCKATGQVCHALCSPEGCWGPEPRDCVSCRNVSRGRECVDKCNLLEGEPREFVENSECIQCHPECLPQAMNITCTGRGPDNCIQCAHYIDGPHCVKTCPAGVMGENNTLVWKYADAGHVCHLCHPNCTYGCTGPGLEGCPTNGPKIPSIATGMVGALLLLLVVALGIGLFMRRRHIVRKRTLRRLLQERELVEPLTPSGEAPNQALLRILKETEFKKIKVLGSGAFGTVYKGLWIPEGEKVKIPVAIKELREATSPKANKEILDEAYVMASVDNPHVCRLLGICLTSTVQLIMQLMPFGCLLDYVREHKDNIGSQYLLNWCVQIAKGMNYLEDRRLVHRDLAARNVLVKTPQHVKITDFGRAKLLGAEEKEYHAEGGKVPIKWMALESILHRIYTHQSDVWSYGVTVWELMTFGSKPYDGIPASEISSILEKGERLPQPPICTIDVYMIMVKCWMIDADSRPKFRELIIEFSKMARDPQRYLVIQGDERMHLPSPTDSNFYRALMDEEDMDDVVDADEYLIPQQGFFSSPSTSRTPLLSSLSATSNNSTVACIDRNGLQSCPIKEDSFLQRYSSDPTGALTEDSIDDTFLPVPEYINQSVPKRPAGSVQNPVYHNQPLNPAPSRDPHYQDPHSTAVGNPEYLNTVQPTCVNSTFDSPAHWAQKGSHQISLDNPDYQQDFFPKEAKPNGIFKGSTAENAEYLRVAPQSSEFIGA
Assay: Inhibition of EGFR kinase L858R/T790M double mutant (unknown origin) after 1.5 hrs by FRET-based Z'-Lyte assay
Format: protein assay
Conditions: not given
In the case of `C=CC(=O)Nc1cccc(N2C(=O)C(Cc3ccc(OC)cc3)N(C)C(=O)c3cnc(Nc4ccc(N5CCN(C)CC5)cc4OC)nc32)c1` (centres undefined), the IC50 is reported as 53.9 nM.
Work on `C=CC(=O)Nc1cccc(N2C(=O)CN(C)C(=O)c3cnc(Nc4ccc(N5CCN(C)CC5)cc4OC)nc32)c1` yielded an IC50 of 52.6 nM.
Work on `C=CC(=O)Nc1cccc(N2C(=O)C(Cc3ccc(F)cc3)N(C)C(=O)c3cnc(Nc4ccc(N5CCN(C)CC5)cc4OC)nc32)c1` (centres undefined) yielded an IC50 of 14.1 nM.
In the case of `C=CC(=O)Nc1cccc(N2C(=O)C(C(C)CC)N(C)C(=O)c3cnc(Nc4ccc(N5CCN(C)CC5)cc4OC)nc32)c1` (centres undefined), the IC50 is reported as 87.5 nM.
In the case of `C=CC(=O)Nc1cccc(N2C(=O)C(Cc3ccccc3)N(C)C(=O)c3cnc(Nc4ccc(N5CCN(C)CC5)cc4OC)nc32)c1` (centres undefined), the IC50 is reported as 8.95 nM.

System: not listed separately
Assay: Selectivity ratio of IC50 for human HL7702 cells expressing wild type EGFR to IC50 for human H1975 cells expressing EGFR kinase […]
Format: ADME, cell-based
Conditions: read-out: Ratio IC50
For `C=CC(=O)Nc1cccc(N2C(=O)C(Cc3ccc(F)cc3)N(C)C(=O)c3cnc(Nc4ccc(N5CCN(C)CC5)cc4OC)nc32)c1` (centres undefined), the selectivity ratio was 200.
Work on `C=CC(=O)Nc1cccc(N2C(=O)C(Cc3ccccc3)N(C)C(=O)c3cnc(Nc4ccc(N5CCN(C)CC5)cc4OC)nc32)c1` (centres undefined) yielded a selectivity ratio of 200.

Target: Epidermal growth factor receptor (Homo sapiens, UniProt P00533, L861Q)
Assay: Inhibition of EGFR kinase L861Q mutant (unknown origin) after 1.5 hrs by FRET-based Z'-Lyte assay
Format: protein assay
Conditions: not given
With `C=CC(=O)Nc1cccc(N2C(=O)C(Cc3ccc(OC)cc3)N(C)C(=O)c3cnc(Nc4ccc(N5CCN(C)CC5)cc4OC)nc32)c1` (centres undefined) the IC50 was 97.1 nM.
`C=CC(=O)Nc1cccc(N2C(=O)CN(C)C(=O)c3cnc(Nc4ccc(N5CCN(C)CC5)cc4OC)nc32)c1` gave an IC50 of 22.3 nM.
`C=CC(=O)Nc1cccc(N2C(=O)C(Cc3ccc(F)cc3)N(C)C(=O)c3cnc(Nc4ccc(N5CCN(C)CC5)cc4OC)nc32)c1` (centres undefined) showed an IC50 of 7.57 nM.
`C=CC(=O)Nc1cccc(N2C(=O)C(C(C)CC)N(C)C(=O)c3cnc(Nc4ccc(N5CCN(C)CC5)cc4OC)nc32)c1` (centres undefined) showed an IC50 of 7.25 nM.
`C=CC(=O)Nc1cccc(N2C(=O)C(Cc3ccccc3)N(C)C(=O)c3cnc(Nc4ccc(N5CCN(C)CC5)cc4OC)nc32)c1` (centres undefined) showed an IC50 of 5.3 nM.

Target: Epidermal growth factor receptor (Homo sapiens, UniProt P00533, L858R)
Sequence (P00533 25-1210 L858R limits assumed): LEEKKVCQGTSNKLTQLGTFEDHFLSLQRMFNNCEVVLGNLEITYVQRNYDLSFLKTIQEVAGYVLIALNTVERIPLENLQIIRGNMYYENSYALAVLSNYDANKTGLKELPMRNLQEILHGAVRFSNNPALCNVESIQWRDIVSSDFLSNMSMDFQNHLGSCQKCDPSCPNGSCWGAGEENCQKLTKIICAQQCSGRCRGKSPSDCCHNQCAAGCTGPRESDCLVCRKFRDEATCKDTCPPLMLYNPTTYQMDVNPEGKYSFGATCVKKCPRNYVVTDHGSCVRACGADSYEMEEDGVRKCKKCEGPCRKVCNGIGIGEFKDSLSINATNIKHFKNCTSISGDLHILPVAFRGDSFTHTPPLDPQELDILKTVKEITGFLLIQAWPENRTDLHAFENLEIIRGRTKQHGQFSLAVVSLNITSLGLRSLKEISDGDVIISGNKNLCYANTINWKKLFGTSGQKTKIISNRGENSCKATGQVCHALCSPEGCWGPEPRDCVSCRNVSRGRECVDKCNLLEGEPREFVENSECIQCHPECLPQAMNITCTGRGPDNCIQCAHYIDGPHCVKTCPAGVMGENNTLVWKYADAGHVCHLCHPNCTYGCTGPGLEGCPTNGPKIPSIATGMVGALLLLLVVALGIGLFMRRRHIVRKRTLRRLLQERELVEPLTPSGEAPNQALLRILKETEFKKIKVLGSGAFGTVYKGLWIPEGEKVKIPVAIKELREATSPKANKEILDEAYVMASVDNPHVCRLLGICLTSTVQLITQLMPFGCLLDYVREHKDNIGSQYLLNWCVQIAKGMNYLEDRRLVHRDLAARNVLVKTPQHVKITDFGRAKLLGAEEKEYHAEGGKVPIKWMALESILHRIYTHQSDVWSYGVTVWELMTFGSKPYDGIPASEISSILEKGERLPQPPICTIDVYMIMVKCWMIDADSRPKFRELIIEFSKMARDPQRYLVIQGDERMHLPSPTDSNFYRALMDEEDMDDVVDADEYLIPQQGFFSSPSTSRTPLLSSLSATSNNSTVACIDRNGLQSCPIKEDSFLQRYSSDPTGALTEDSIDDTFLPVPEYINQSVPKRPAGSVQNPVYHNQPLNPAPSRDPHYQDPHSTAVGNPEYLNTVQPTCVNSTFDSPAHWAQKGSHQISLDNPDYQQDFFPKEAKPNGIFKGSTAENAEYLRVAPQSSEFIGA
Assay: Inhibition of EGFR kinase L858R mutant (unknown origin) after 1.5 hrs by FRET-based Z'-Lyte assay
Format: protein assay
Conditions: not given
Work on `C=CC(=O)Nc1cccc(N2C(=O)C(Cc3ccc(OC)cc3)N(C)C(=O)c3cnc(Nc4ccc(N5CCN(C)CC5)cc4OC)nc32)c1` (centres undefined) yielded an IC50 of 50 nM.
For `C=CC(=O)Nc1cccc(N2C(=O)CN(C)C(=O)c3cnc(Nc4ccc(N5CCN(C)CC5)cc4OC)nc32)c1`, the IC50 was 15.1 nM.
For `C=CC(=O)Nc1cccc(N2C(=O)C(Cc3ccc(F)cc3)N(C)C(=O)c3cnc(Nc4ccc(N5CCN(C)CC5)cc4OC)nc32)c1` (centres undefined), the IC50 was 24.5 nM.
With `C=CC(=O)Nc1cccc(N2C(=O)C(C(C)CC)N(C)C(=O)c3cnc(Nc4ccc(N5CCN(C)CC5)cc4OC)nc32)c1` (centres undefined) the IC50 was 13.2 nM.
With `C=CC(=O)Nc1cccc(N2C(=O)C(Cc3ccccc3)N(C)C(=O)c3cnc(Nc4ccc(N5CCN(C)CC5)cc4OC)nc32)c1` (centres undefined) the IC50 was 8.33 nM.

System: not listed separately
Assay: Selectivity ratio of IC50 for human HL7702 cells expressing wild type EGFR to IC50 for human H1975 cells expressing EGFR kinase L858R/T790M double mutant
Format: ADME, cell-based
Conditions: read-out: Ratio IC50
For `C=CC(=O)Nc1cccc(N2C(=O)C(Cc3ccc(F)cc3)N(C)C(=O)c3cnc(Nc4ccc(N5CCN(C)CC5)cc4OC)nc32)c1` (centres undefined), the selectivity ratio was 200.
`C=CC(=O)Nc1cccc(N2C(=O)C(Cc3ccccc3)N(C)C(=O)c3cnc(Nc4ccc(N5CCN(C)CC5)cc4OC)nc32)c1` (centres undefined) gave a selectivity ratio of 200.
